Measurements as given in patent US9833497B2, “Human originated EGF domain proteins and use of the same” (CHENGDU SOURCEBIO LIMITED-LIABILITY COMPANY, priority 2013, dated 2017).

Legend:
Assay type in all cases: cell-based
[1] = tested on: E. coli DH5α; experiment: Antibacterial activity: MIC and growth curve against E. coli DH5α in 96-well plate; conditions: minimal inhibitory concentration against E. coli DH5α; 96-well plate, 5×10^5 CFU/mL, 37° C., judged after 8 h
Method in brief: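 MIC taken as lowest protein level with no bacterial growth, tracked by A600 every 30 min during 37 °C, 175 rpm culture. Two-fold protein series 50-12.5 μg/mL final, triplicate wells, against 5×10^5 CFU/mL of LB-washed mid-log cells.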

[2] = tested on: E. coli BL21; experiment: MIC against Gram-negative bacteria: E. coli BL21; conditions: for MIC E. coli BL21 / MIC against E. coli BL21 / MIC (μg/mL) E. coli BL21: 5×10^5 CFU/mL
Method in brief: (§1)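 LB broth cultures at McFarland 0.5, spun down, resuspended, diluted to 5×10^5 CFU/mL final. Two-fold serial dilutions of purified human EGF domain proteins, triplicate. 37° C, 175 rpm shaking. Endpoint: no visible growth.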

[3] = tested on: Pseudomonas aeruginosa; experiment: MIC against Gram-negative bacteria: Pseudomonas aeruginosa; conditions: for MIC P. aeruginosa / MIC against P. aeruginosa / MIC (μg/mL) P. aeruginosa: 5×10^5 CFU/mL
Method in brief: as §1

[4] = tested on: Klebsiella pneumonia; experiment: MIC against Gram-negative bacteria: Klebsiella pneumonia; conditions: for MIC K. pneumonia / MIC against K. pneumonia / MIC (μg/mL) K. pneumonia: 5×10^5 CFU/mL
Method in brief: as §1

[5] = tested on: Enterobacter cloacae; experiment: MIC against Gram-negative bacteria: Enterobacter cloacae; conditions: for MIC E. cloacae / MIC against E. cloacae / MIC (μg/mL) E. cloacae: 5×10^5 CFU/mL
Method in brief: as §1

[6] = tested on: Aeromonas hydrophila; experiment: MIC against Gram-negative bacteria: Aeromonas hydrophila; conditions: for MIC A. hydrophila / MIC against A. hydrophila / MIC (μg/mL) A. hydrophila: 5×10^5 CFU/mL
Method in brief: as §1

[7] = tested on: Citrobacter diversus; experiment: MIC against Gram-negative bacteria: Citrobacter diversus; conditions: for MIC C. diversus / MIC against C. diversus / MIC (μg/mL) C. diversus: 5×10^5 CFU/mL
Method in brief: as §1

[8] = tested on: Moraxella catarrhalis; experiment: MIC against Gram-negative bacteria: Moraxella catarrhalis; conditions: for MIC M. catarrhalis / MIC against M. catarrhalis / MIC (μg/mL) M. catarrhalis: 5×10^5 CFU/mL
Method in brief: as §1

[9] = tested on: Proteus mirabilis; experiment: MIC against Gram-negative bacteria: Proteus mirabilis; conditions: for MIC P. mirabilis / MIC against P. mirabilis / MIC (μg/mL) P. mirabilis: 5×10^5 CFU/mL
Method in brief: as §1

[10] = tested on: Proteus vulgaris; experiment: MIC against Gram-negative bacteria: Proteus vulgaris; conditions: for MIC P. vulgaris / MIC against P. vulgaris / MIC (μg/mL) P. vulgaris: 5×10^5 CFU/mL
Method in brief: as §1

[11] = tested on: Serratia marcescens; experiment: MIC against Gram-negative bacteria: Serratia marcescens; conditions: for MIC S. marcescens / MIC against S. marcescens / MIC (μg/mL) S. marcescens: 5×10^5 CFU/mL
Method in brief: as §1

[12] = E. coli BL21, 10 h cultivation at 37° C.
[13] = E. coli BL21, 96-well plate, 37° C., 10 h
[14] = Pseudomonas aeruginosa, 96-well plate, 37° C., 10 h
[15] = Klebsiella pneumonia, 96-well plate, 37° C., 10 h
[16] = Enterobacter cloacae, 96-well plate, 37° C., 10 h
[17] = Aeromonas hydrophila, 96-well plate, 37° C., 10 h
[18] = Citrobacter diversus, 96-well plate, 37° C., 10 h
[19] = Moraxella catarrhalis, 96-well plate, 37° C., 10 h
[20] = Proteus mirabilis, 96-well plate, 37° C., 10 h
[21] = Proteus vulgaris, 96-well plate, 37° C., 10 h
[22] = Serratia marcescens, 96-well plate, 37° C., 10 h
[23] = P. aeruginosa, 10 h cultivation at 37° C.
[24] = K. pneumonia, 10 h cultivation at 37° C.
[25] = E. cloacae, 10 h cultivation at 37° C.
[26] = A. hydrophila, 10 h cultivation at 37° C.
[27] = C. diversus, 10 h cultivation at 37° C.
[28] = M. catarrhalis, 10 h cultivation at 37° C.
[29] = P. mirabilis, 10 h cultivation at 37° C.
[30] = P. vulgaris, 10 h cultivation at 37° C.
[31] = S. marcescens, 10 h cultivation at 37° C.

PRT633 (TKPSCVPPCQNGGMCLRPQLCVCKPGTKGKACE; listed as Homo sapiens)
50 µg/mL: MIC E. coli BL21 ([2]; 96-well plate, 37° C., 10 h) | MIC K. pneumonia ([4]; 96-well plate, 37° C., 10 h) | MIC A. hydrophila ([6]; 96-well plate, 37° C., 10 h) | MIC M. catarrhalis ([8]; 96-well plate, 37° C., 10 h) | MIC P. vulgaris ([10]; 96-well plate, 37° C., 10 h)
25 µg/mL: MIC S. marcescens ([11]; 96-well plate, 37° C., 10 h)
12.5 µg/mL: MIC [1] | MIC P. aeruginosa ([3]; 96-well plate, 37° C., 10 h) | MIC E. cloacae ([5]; 96-well plate, 37° C., 10 h) | MIC C. diversus ([7]; 96-well plate, 37° C., 10 h) | MIC P. mirabilis ([9]; 96-well plate, 37° C., 10 h)

PRT1409 (RACHPRCAEHGTCKDGKCECSQGWNGEHCT; listed as Homo sapiens)
50 µg/mL: MIC against P. mirabilis ([9]; Proteus mirabilis, 10 h cultivation at 37° C.) | MIC against S. marcescens ([11]; Serratia marcescens, 10 h cultivation at 37° C.)
12.5 µg/mL: MIC [1] | MIC against E. coli BL21 [2, 12] | MIC against P. aeruginosa ([3]; Pseudomonas aeruginosa, 10 h cultivation at 37° C.) | MIC against K. pneumonia ([4]; Klebsiella pneumonia, 10 h cultivation at 37° C.) | MIC against E. cloacae ([5]; Enterobacter cloacae, 10 h cultivation at 37° C.) | MIC against A. hydrophila ([6]; Aeromonas hydrophila, 10 h cultivation at 37° C.) | MIC against C. diversus ([7]; Citrobacter diversus, 10 h cultivation at 37° C.) | MIC against M. catarrhalis ([8]; Moraxella catarrhalis, 10 h cultivation at 37° C.) | MIC against P. vulgaris ([10]; Proteus vulgaris, 10 h cultivation at 37° C.)

PRT1199 (AFCEEGCRYGGTCVAPNKCVCPSGFTGSHCE; listed as Homo sapiens)
50 µg/mL: MIC [1] | MIC against P. aeruginosa [3, 14] | MIC against E. cloacae [5, 16] | MIC against P. vulgaris [10, 21]
25 µg/mL: MIC against A. hydrophila [6, 17] | MIC against C. diversus [7, 18] | MIC against P. mirabilis [9, 20] | MIC against S. marcescens [11, 22]
12.5 µg/mL: MIC against E. coli BL21 [2, 13] | MIC against K. pneumonia [4, 15] | MIC against M. catarrhalis [8, 19]

PRT662 (RIYFCQIPCLNGGRCIGRDECWCPANSTGKFCH; listed as Homo sapiens)
50 µg/mL: MIC K. pneumonia ([4]; 96-well plate, 37° C., 10 h) | MIC P. mirabilis ([9]; 96-well plate, 37° C., 10 h) | MIC S. marcescens ([11]; 96-well plate, 37° C., 10 h)
12.5 µg/mL: MIC E. coli BL21 ([2]; 96-well plate, 37° C., 10 h) | MIC A. hydrophila ([6]; 96-well plate, 37° C., 10 h) | MIC P. vulgaris ([10]; 96-well plate, 37° C., 10 h)
25 µg/mL: MIC [1] | MIC P. aeruginosa ([3]; 96-well plate, 37° C., 10 h) | MIC E. cloacae ([5]; 96-well plate, 37° C., 10 h) | MIC C. diversus ([7]; 96-well plate, 37° C., 10 h) | MIC M. catarrhalis ([8]; 96-well plate, 37° C., 10 h)

PRT87 (DACLLNPCQNQGSCRHLPGAPHGYTCDCVGGYFGHHCE; listed as Homo sapiens)
25 µg/mL: MIC (μg/mL) A. hydrophila [6, 17] | MIC (μg/mL) M. catarrhalis [8, 19] | MIC (μg/mL) P. vulgaris [10, 21]
12.5 µg/mL: MIC [1] | MIC (μg/mL) E. coli BL21 [2, 13] | MIC (μg/mL) P. aeruginosa [3, 14] | MIC (μg/mL) E. cloacae [5, 16] | MIC (μg/mL) P. mirabilis [9, 20]
50 µg/mL: MIC (μg/mL) K. pneumonia [4, 15] | MIC (μg/mL) C. diversus [7, 18] | MIC (μg/mL) S. marcescens [11, 22]

PRT553 (CQCPGGRCDPHTGRCNCPPGLSGERCDTCSQQHQVPVPGGPVGHSIHCEV; listed as Homo sapiens)
50 µg/mL: MIC against E. coli BL21 ([2]; 96-well plate, 37° C., 10 h) | MIC against A. hydrophila ([6]; 96-well plate, 37° C., 10 h) | MIC against P. vulgaris ([10]; 96-well plate, 37° C., 10 h)
25 µg/mL: MIC [1] | MIC against P. aeruginosa ([3]; 96-well plate, 37° C., 10 h) | MIC against E. cloacae ([5]; 96-well plate, 37° C., 10 h) | MIC against C. diversus ([7]; 96-well plate, 37° C., 10 h) | MIC against P. mirabilis ([9]; 96-well plate, 37° C., 10 h) | MIC against S. marcescens ([11]; 96-well plate, 37° C., 10 h)
12.5 µg/mL: MIC against K. pneumonia ([4]; 96-well plate, 37° C., 10 h) | MIC against M. catarrhalis ([8]; 96-well plate, 37° C., 10 h)

PRT803 (HGKGCQLPCQCRHGASCDPRAGECLCAPGYTGVYCE; listed as Homo sapiens)
12.5 µg/mL: MIC (μg/mL) P. aeruginosa [3, 23] | MIC (μg/mL) P. vulgaris [10, 30]
100 µg/mL: MIC (μg/mL) M. catarrhalis [8, 28]
25 µg/mL: MIC (μg/mL) K. pneumonia [4, 24] | MIC (μg/mL) A. hydrophila [6, 26] | MIC (μg/mL) C. diversus [7, 27]
50 µg/mL: MIC [1] | MIC (μg/mL) E. coli BL21 [2, 12] | MIC (μg/mL) E. cloacae [5, 25] | MIC (μg/mL) P. mirabilis [9, 29] | MIC (μg/mL) S. marcescens [11, 31]

PRT996 (DIDECRSSPCANGGQCQDQPGAFHCKCLPGFEGPRCQ; listed as Homo sapiens)
100 µg/mL: MIC [6, 26]
25 µg/mL: MIC [1] | MIC [3, 23] | MIC [8, 28] | MIC [10, 30]
12.5 µg/mL: MIC [2, 12] | MIC [4, 24] | MIC [5, 25] | MIC [7, 27] | MIC [9, 29] | MIC [11, 31]

PRT995 (ETNECASAPCLNHADCHDLLNGFQCICLPGFSGTRCE; listed as Homo sapiens)
25 µg/mL: MIC [7, 27] | MIC [9, 29]
50 µg/mL: MIC [2, 12] | MIC [4, 24] | MIC [6, 26] | MIC [10, 30]
12.5 µg/mL: MIC [1] | MIC [3, 23] | MIC [5, 25] | MIC [8, 28] | MIC [11, 31]

PRT103 (CSSYGKLCRNGGKCRERPIGFFCDCTFSAYTGPFC; listed as Homo sapiens)
12.5 µg/mL: MIC (μg/mL) E. coli BL21 [2, 13] | MIC (μg/mL) K. pneumonia [4, 15] | MIC (μg/mL) E. cloacae [5, 16] | MIC (μg/mL) A. hydrophila [6, 17] | MIC (μg/mL) C. diversus [7, 18] | MIC (μg/mL) M. catarrhalis [8, 19] | MIC (μg/mL) P. vulgaris [10, 21]
50 µg/mL: MIC [1] | MIC (μg/mL) P. aeruginosa [3, 14]
25 µg/mL: MIC (μg/mL) P. mirabilis [9, 20] | MIC (μg/mL) S. marcescens [11, 22]
